Series [1] can be described thus: Liver microsomal stability assay, MLM.
Series [2] has as its target T1, PAK4 (Homo sapiens, UniProt O96013). The series is described as follows: PAK4 HTRF assay. The settings on record: for Ki / LE / LLE: PAK4 Ki; for Ki: HTRF, average of two independent experiments; for LE: Ligand efficiency = (−1.4 Log Ki)/(n heavy atoms); for LLE: Ligand lipophilicity efficiency = (−Log Ki) − (cLogP). It counts as biochemical. On the technique in general: Time-resolved FRET reads energy transfer from a long-lived donor to a nearby acceptor.

Series [3] in a line: in vitro. Conditions: CD-1, mouse, mouse liver microsomes, pH 7.4. A general note: Microsomes from liver hold many membrane-bound enzymes, among them those of drug oxidation.
Series [4] addresses PAK1 (Homo sapiens, UniProt Q13153). The series is described as follows: PAK1 FRET-based Z'-Lyte assay. It counts as biochemical.
Series [5] relates to A549. The series is described as follows: Wound-healing assay, A549 cell migration. Format: cell-based, human. The settings on record: 20 μmol/L.
The target of series [6] is T1, PAK4. The settings on record: read-out: PAK4 Ki (reported); cited from earlier work.
The mark [7] stands for this setting: at least two duplicate experiments, SEM < ±20%.

The values below come from paper PMC9214071 (Acta Pharmaceutica Sinica. B, 2022).

SMILES strings stand for the structures. Where “and” joins values, the source holds several entries; their conditions need not be identical. Identical values can stand only once. Like-named read-outs stand apart in the source and are kept apart here. Marks after values point to notes of the source that are not given here.

T1 sequence (O96013 whole entry): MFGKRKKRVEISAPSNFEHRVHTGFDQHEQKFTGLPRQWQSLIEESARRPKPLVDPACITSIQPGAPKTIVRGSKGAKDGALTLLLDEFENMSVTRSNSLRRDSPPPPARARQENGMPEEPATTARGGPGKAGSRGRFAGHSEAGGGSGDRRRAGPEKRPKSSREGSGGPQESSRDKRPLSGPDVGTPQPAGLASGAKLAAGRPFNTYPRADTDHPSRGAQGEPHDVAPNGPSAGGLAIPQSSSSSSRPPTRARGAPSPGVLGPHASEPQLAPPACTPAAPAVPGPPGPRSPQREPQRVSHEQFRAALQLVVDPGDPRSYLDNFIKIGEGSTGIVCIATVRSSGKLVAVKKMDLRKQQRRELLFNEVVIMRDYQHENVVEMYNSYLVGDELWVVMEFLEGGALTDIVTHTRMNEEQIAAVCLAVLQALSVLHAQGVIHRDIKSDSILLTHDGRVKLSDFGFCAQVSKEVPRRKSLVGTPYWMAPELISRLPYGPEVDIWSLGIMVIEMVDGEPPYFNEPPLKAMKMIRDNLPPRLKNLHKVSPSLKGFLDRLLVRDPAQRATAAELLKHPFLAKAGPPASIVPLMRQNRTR
Sequence of PAK1 (Q13153 whole entry): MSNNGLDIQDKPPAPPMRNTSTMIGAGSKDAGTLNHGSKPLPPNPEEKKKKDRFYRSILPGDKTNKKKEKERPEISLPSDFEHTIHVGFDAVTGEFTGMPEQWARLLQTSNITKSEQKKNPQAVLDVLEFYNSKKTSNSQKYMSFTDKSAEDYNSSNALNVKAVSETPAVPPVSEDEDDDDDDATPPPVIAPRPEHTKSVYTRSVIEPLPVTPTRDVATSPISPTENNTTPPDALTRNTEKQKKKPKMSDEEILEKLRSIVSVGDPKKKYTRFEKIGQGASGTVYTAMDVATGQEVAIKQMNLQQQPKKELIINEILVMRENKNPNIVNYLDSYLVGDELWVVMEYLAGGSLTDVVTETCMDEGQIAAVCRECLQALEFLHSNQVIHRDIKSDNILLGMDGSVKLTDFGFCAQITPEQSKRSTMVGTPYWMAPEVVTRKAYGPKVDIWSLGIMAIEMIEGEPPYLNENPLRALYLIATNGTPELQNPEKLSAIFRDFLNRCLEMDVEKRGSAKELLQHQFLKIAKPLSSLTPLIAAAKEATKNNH

For orientation: Ki means the equilibrium dissociation constant of an inhibitor or competing ligand from its target. As a reminder, the half-life is the time in which the quantity being followed falls by half. Read a low half-life as rapid decline. On to `NC(=O)c1cn(-c2ccnc(N)n2)c2cc(C#CC3(O)CCCCC3)ccc12` [Compound 41], for which the liver clearance in series [1] came out at 105.5 mL/min/kg. In series [2], this compound gave a Ki of 14 nM. In addition, the half-life at 1 μmol/L in series [3] is 23.7 min.

In series [2], `Nc1nccc(-n2cc(C(=O)N3CCNCC3)c3ccc(C#CC4(O)CCCCC4)cc32)n1` [Compound 42] gave an LE of 0.35, an LLE of 4.97 and an inhibition constant Ki of 6.6 nM. Further, the “fold increase of inhibitory capacity compared to 37” value in series [2] (PAK4, relative to 37) turned out to be 18 fold. Besides, affinity in series [4] (setting [7]) was put at a Ki of 4990 nM. Also, the “A549, effect of compounds on the cell mobility” value in series [5] is recorded as 65% ^h.

What is called IC50 is the point on the concentration scale where inhibition reaches its midpoint. Read a low IC50 as higher potency. With `Nc1nccc(-n2cc(C(=O)N3CCC[C@@H](N)C3)c3ccc(C#CC4(O)CCCCC4)cc32)n1` [Compound 47], in series [2], 6.3 nM corresponded to half-maximal inhibition (IC50), the LE is 0.34, the LLE is listed as 5.65 and affinity was put at a Ki of 3.4 nM. This compound registered an inhibitory constant (Ki) in series [4] of 6990 nM. Also, in series [4] (setting [7]), the inhibition constant Ki amounted to 6990 nM.

As for `Nc1nccc(-n2cc(C(=O)N[C@@H]3CCCNC3)c3ccc(C#CC4(O)CCCCC4)cc32)n1` [Compound 48], in series [2], the LE came out at 0.33, the LLE was found to be 5.42 and the Ki was determined as 5.6 nM. For the same compound, the affinity in series [4] (setting [7]) corresponds to a Ki of 7130 nM.

In series [2], `Nc1nccc(-n2cc(C(=O)N3CC[C@@H](N)C3)c3ccc(C#CC4(O)CCCCC4)cc32)n1` [Compound 51] displayed an LE of 0.31, an LLE of 4.42 and an inhibitory constant (Ki) of 25.5 nM. For the same compound, the Ki in series [4] (setting [7]) was determined as 6340 nM.

In series [2], `Nc1nccc(-n2cc(C(=O)N3CC[C@H](N)C3)c3ccc(C#CC4(O)CCCCC4)cc32)n1` [Compound 53] displayed an LE of 0.31, an LLE of 4.47 and an inhibition constant (Ki) of 22.7 nM. In addition, the inhibitory constant (Ki) in series [4] (setting [7]) was determined as 2870 nM.

Turning to `Nc1nccc(-n2cc(C(=O)N3CCNC(=O)C3)c3ccc(C#CC4(O)CCCCC4)cc32)n1` [Compound 56, 4-(1-(2-Aminopyrimidin-4-yl)-6-((1-hydroxycyclohexyl)ethynyl)-1H-indole-3-carbonyl)piperazin-2-one], in series [2], the LE was 0.31, the LLE turned out to be 5.17 and the Ki turned out to be 18.1 nM. This compound returned an inhibitory constant (Ki) in series [4] (setting [7]) of 4990 nM.

Consider `COCCNc1nc2ccc(C#CC3(O)CCCCC3)cc2n1-c1ccnc(N)n1` [GNE-2861, reference compound], for which the inhibition constant (Ki) is 35 nM and 35.3 nM in series [2]; 3130 nM in series [4] (setting [7]); 3 nM in series [6].
